Consider 18 compounds from ChEMBL document CHEMBL1130855, “Carbohydrate modifications in the spirostane cellobioside cholesterol absorption inhibitor series” (1998).

Assay [1] concerns Cricetinae gen. sp. Put plainly: Inhibition of cholesterol absorption in the hamster. It counts as functional.
For assay [2], the system named is Cricetinae gen. sp. Nature of the assay: Inhibitory activity against cholesterol absorption in the hamster. Format: functional.

By ED50 is commonly meant the midpoint of the dose-response relation. Low values mean an effect at a small dose, high ones a need for a large dose.

In the assay on Cricetinae gen. sp. [1], `C[C@@H]1CC[C@@]2(OC1)OC1C[C@H]3[C@@H]4CC[C@H]5C[C@@H](O[C@@H]6O[C@@H](C)[C@@H](O[C@@H]7O[C@@H](CO)[C@@H](O)[C@H](O)[C@@H]7O)[C@H](O)[C@@H]6O)CC[C@]5(C)[C@H]4CC(=O)[C@]3(C)C1[C@@H]2C` (stereo partly specified) gave an ED50 of 5 mg/kg. In the assay with Cricetinae gen. sp. [2], this compound showed a Relative potency of 167.
Take `C[C@@H]1CC[C@@]2(OC1)O[C@H]1C[C@H]3[C@@H]4CC[C@H]5C[C@@H](O[C@@H]6O[C@@H](COC(=O)Nc7ccccc7F)[C@@H](O[C@@H]7O[C@@H](COC(=O)Nc8ccccc8F)[C@@H](O)[C@H](O)[C@@H]7O)[C@H](O)[C@@H]6O)CC[C@]5(C)[C@H]4C(=O)C[C@]3(C)[C@H]1[C@@H]2C`: the ED50 with Cricetinae gen. sp. [1] stood at 0.8 mg/kg. For the same compound, in the assay on Cricetinae gen. sp. [2], the Relative potency is given as 32.
Turning to `C[C@@H]1CC[C@@]2(OC1)O[C@H]1C[C@H]3[C@@H]4CC[C@H]5C[C@@H](O[C@@H]6O[C@@H](COC(=O)Nc7ccccc7F)C(O[C@@H]7O[C@@H](CO)C(O)[C@H](O)C7O)[C@H](O)C6O)CC[C@]5(C)[C@H]4C(=O)C[C@]3(C)[C@H]1[C@@H]2C` (stereo partly specified), it took a dose of 7 mg/kg to reach the 50% effect level in the assay with Cricetinae gen. sp. [1] (ED50). The compound also returned a Relative potency with Cricetinae gen. sp. [2] of 280.
For `C[C@@H]1CC[C@@]2(OC1)O[C@H]1C[C@H]3[C@@H]4CC[C@H]5C[C@@H](O[C@@H]6O[C@@H](CO)[C@@H](O[C@@H]7O[C@@H](COC(=O)Nc8ccccc8F)[C@@H](O)[C@H](O)[C@@H]7O)[C@H](O)[C@@H]6O)CC[C@]5(C)[C@H]4C(=O)C[C@]3(C)[C@H]1[C@@H]2C`, in that order: 0.2 mg/kg and 8.
For the compound `C[C@@H]1CC[C@@]2(OC1)O[C@H]1C[C@H]3[C@@H]4CC[C@H]5C[C@@H](O[C@@H]6O[C@@H](CO)[C@@H](O[C@@H]7O[C@@H](CO)[C@@H](OC(=O)Nc8ccccc8F)[C@H](OC(=O)Nc8ccccc8F)[C@@H]7O)[C@H](O)[C@@H]6O)CC[C@]5(C)[C@H]4C(=O)C[C@]3(C)[C@H]1[C@@H]2C`, the ED50 in the assay with Cricetinae gen. sp. [1] was 0.1 mg/kg. In the assay on Cricetinae gen. sp. [2], the Relative potency is reported as 4.
The like results for `C[C@@H]1CC[C@@]2(OC1)O[C@H]1C[C@H]3[C@@H]4CC[C@H]5C[C@@H](O[C@@H]6O[C@@H](CO)[C@@H](O[C@@H]7O[C@@H](COC(=O)Nc8ccccc8F)[C@@H](O)[C@H](O)[C@@H]7O)[C@H](O)[C@@H]6O)CC[C@]5(C)[C@H]4CC(=O)[C@]3(C)[C@H]1[C@@H]2C` were, in that order, 0.3 mg/kg and 10.
Turning to `C[C@@H]1CC[C@@]2(OC1)O[C@H]1C[C@H]3[C@@H]4CC[C@H]5C[C@@H](O[C@@H]6O[C@@H](CO)[C@@H](O[C@@H]7O[C@@H](CO)[C@@H](OC(=O)Nc8ccccc8F)[C@H](O)[C@@H]7O)[C@H](O)[C@@H]6O)CC[C@]5(C)[C@H]4C(=O)C[C@]3(C)[C@H]1[C@@H]2C`, in the assay on Cricetinae gen. sp. [1], it took a dose of 0.1 mg/kg to reach the 50% effect level (ED50). In addition, the Relative potency in the assay on Cricetinae gen. sp. [2] amounted to 4.
`C[C@@H]1CC[C@@]2(OC1)O[C@H]1C[C@H]3[C@@H]4CC[C@H]5C[C@@H](O[C@@H]6O[C@@H](CO)[C@@H](O[C@@H]7O[C@@H](COC(=O)Nc8ccccc8F)[C@@H](OC(=O)Nc8ccccc8F)[C@H](O)C7O)[C@H](O)[C@@H]6O)CC[C@]5(C)[C@H]4CC(=O)[C@]3(C)[C@H]1[C@@H]2C` (stereo partly specified) returned an ED50 in the assay on Cricetinae gen. sp. [1] of 0.07 mg/kg. In addition, the Relative potency in the assay with Cricetinae gen. sp. [2] came out at 2.3.
In the assay on Cricetinae gen. sp. [1], `C[C@@H]1CC[C@@]2(OC1)O[C@H]1C[C@H]3[C@@H]4CC[C@H]5C[C@@H](O[C@@H]6O[C@@H](CO)[C@@H](O[C@@H]7O[C@@H](COC(=O)Nc8ccccc8F)C[C@H](O)[C@@H]7O)[C@H](O)[C@@H]6O)CC[C@]5(C)[C@H]4CC(=O)[C@]3(C)[C@H]1[C@@H]2C` had an ED50 of 0.15 mg/kg. In the assay with Cricetinae gen. sp. [2], this compound yielded a Relative potency of 5.
For `C[C@@H]1CC[C@@]2(OC1)O[C@H]1C[C@H]3[C@@H]4CC[C@H]5C[C@@H](O[C@@H]6O[C@@H](CO)[C@@H](O[C@@H]7O[C@@H](C)[C@@H](O)[C@H](O)[C@@H]7O)[C@H](O)[C@@H]6O)CC[C@]5(C)[C@H]4CC(=O)[C@]3(C)[C@H]1[C@@H]2C`, in that order: 3.2 mg/kg and 107.
For `C[C@@H]1CC[C@@]2(OC1)O[C@H]1C[C@H]3[C@@H]4CC[C@H]5C[C@@H](O[C@@H]6O[C@@H](CO)[C@@H](O[C@@H]7O[C@@H](CO)[C@@H](O)[C@H](O)[C@@H]7O)[C@H](O)[C@@H]6O)CC[C@]5(C)[C@H]4CC(=O)[C@]3(C)[C@H]1[C@@H]2C` [CELLOBIOSYL HECOGENIN], in that order: 10 mg/kg and 333.
The like results for `C[C@@H]1CC[C@@]2(OC1)O[C@H]1C[C@H]3[C@@H]4CC[C@H]5C[C@@H](O[C@@H]6O[C@@H](CO)[C@@H](O[C@@H]7O[C@@H](CO)[C@@H](OC(=O)Nc8ccccc8F)[C@H](O)[C@@H]7O)[C@H](O)[C@@H]6O)CC[C@]5(C)[C@H]4CC(=O)[C@]3(C)[C@H]1[C@@H]2C` were, in that order, 0.15 mg/kg and 5.
`C[C@@H]1CC[C@@]2(OC1)O[C@H]1C[C@H]3[C@@H]4CC[C@H]5C[C@@H](O[C@@H]6O[C@@H](CO)[C@@H](O[C@@H]7O[C@@H](C)C[C@H](O)[C@@H]7O)[C@H](O)[C@@H]6O)CC[C@]5(C)[C@H]4CC(=O)[C@]3(C)[C@H]1[C@@H]2C` had an ED50 with Cricetinae gen. sp. [1] of 3 mg/kg. This compound registered a Relative potency in the assay with Cricetinae gen. sp. [2] of 100.
For `C[C@@H]1CC[C@@]2(OC1)O[C@H]1C[C@H]3[C@@H]4CC[C@H]5C[C@@H](O[C@@H]6O[C@@H](CO)[C@@H](O[C@@H]7O[C@@H](CO)C[C@H](O)[C@@H]7O)[C@H](O)[C@@H]6O)CC[C@]5(C)[C@H]4CC(=O)[C@]3(C)[C@H]1[C@@H]2C`, in that order: 13 mg/kg and 433.
Compound `C[C@@H]1CC[C@@]2(OC1)O[C@H]1C[C@H]3[C@@H]4CC[C@H]5C[C@@H](O[C@@H]6O[C@@H](C)[C@@H](O[C@@H]7O[C@@H](C)[C@@H](O)[C@H](O)[C@@H]7O)[C@H](O)[C@@H]6O)CC[C@]5(C)[C@H]4CC(=O)[C@]3(C)[C@H]1[C@@H]2C` registered an ED50 in the assay with Cricetinae gen. sp. [1] of 5 mg/kg. For the same compound, the Relative potency with Cricetinae gen. sp. [2] was 167.
For `C[C@@H]1CC[C@@]2(OC1)O[C@H]1C[C@H]3[C@@H]4CC[C@H]5C[C@@H](O[C@@H]6O[C@@H](CO)[C@@H](O[C@@H]7O[C@@H](C)[C@@H](OC(=O)Nc8ccccc8F)[C@H](O)[C@@H]7O)[C@H](O)[C@@H]6O)CC[C@]5(C)[C@H]4CC(=O)[C@]3(C)[C@H]1[C@@H]2C`, in that order: 0.03 mg/kg and 1.
The like results for `C[C@@H]1CC[C@@]2(OC1)O[C@H]1C[C@H]3[C@@H]4CC[C@H]5C[C@@H](O[C@@H]6O[C@@H](CO)[C@@H](O[C@@H]7O[C@@H](COC(=O)Nc8ccccc8F)[C@@H](OC(=O)Nc8ccccc8F)[C@H](O)C7O)[C@H](O)[C@@H]6O)CC[C@]5(C)[C@H]4C(=O)C[C@]3(C)[C@H]1[C@@H]2C` (stereo partly specified) were, in that order, 0.025 mg/kg and 1.
In the assay on Cricetinae gen. sp. [1], `C[C@@H]1CC[C@@]2(OC1)O[C@H]1C[C@H]3[C@@H]4CC[C@H]5C[C@@H](O[C@@H]6O[C@@H](COC(=O)Nc7ccccc7F)[C@@H](O[C@@H]7O[C@@H](COC(=O)Nc8ccccc8F)[C@@H](OC(=O)Nc8ccccc8F)[C@H](O)[C@@H]7O)[C@H](O)[C@@H]6O)CC[C@]5(C)[C@H]4C(=O)C[C@]3(C)[C@H]1[C@@H]2C` yielded an ED50 of 0.2 mg/kg. The same compound displayed a Relative potency in the assay with Cricetinae gen. sp. [2] of 8.
